Source: patent publication US9802895B2, “Indole and benzimidazolecarboxamides as insecticides and acaricides” (BAYER CROPSCIENCE AKTIENGESELLSCHAFT, priority 2014, dated 2017)

Legend:
[1] = system: L1 larvae of the Australian sheep blowfly (Lucilia cuprina); experiment: Lucilia cuprina test (LUCICU); type: in vivo; settings: 100 ppm, after 2 days
Protocol: Lucilia cuprina Test (LUCICU) Solvent: dimethyl sulphoxide To produce a suitable active compound formulation, 10 mg of active compound are mixed with 0.5 ml of dimethyl sulphoxide, and the concentrate is diluted with water to the desired concentration. About 20 L1 larvae of the Australian sheep blowfly (Lucilia cuprina) are transferred into a test vessel containing minced horsemeat and the active compound preparation of the desired concentration. After 2 days, the kill in % is determined 100% means that all the larvae have been killed; 0% means that none of the larvae have been killed.

[2] = system: caterpillars of the armyworm (Spodoptera frugiperda); experiment: Spodoptera frugiperda spray test (SPODFR); type: in vivo; settings: for efficacy: 100 g/ha, spray, after 7 days; for % efficacy: SPODFR, 7 dat
Protocol: Spodoptera frugiperda—Spray Test (SPODFR) Solvent: 78.0 parts by weight of acetone • • 1.5 parts by weight of dimethylformamide Emulsifier: alkylaryl polyglycol ether To produce a suitable active compound formulation, 1 part by weight of active compound is dissolved using the specified parts by weight of solvent and made up with water containing an emulsifier concentration of 1000 ppm until the desired concentration is attained. To produce further test concentrations, the preparation is diluted with emulsifier-containing water. Leaf discs of maize (Zea mays) are sprayed with an active compound formulation of the desired concentration and, after drying, populated with caterpillars of the armyworm (Spodoptera frugiperda). After 7 days, the efficacy in % is determined 100% means that all the caterpillars have been killed; 0% means that no caterpillars have been killed. Spodoptera frugiperda—Spray Test (SPODFR) Solvent: 78.0 parts by weight of acetone • • 1.5 parts by weight of dimethylformamide Emulsifier: alkylaryl polyglycol ether To produce a suitable active compound formulation, 1 part by weight of active compound is dissolved using the specified parts by weight of solvent and made up with water containing an emulsifier concentration of 1000 ppm until the desired concentration is attained. To produce further test concentrations, the preparation is diluted with emulsifier-containing water. Leaf discs of maize (Zea mays) are sprayed with an active compound formulation of the desired concentration and, after drying, populated with caterpillars of the armyworm (Spodoptera frugiperda). After the desired period of time, the efficacy in % is determined. 100% means that all the caterpillars have been killed; 0% means that no caterpillars have been killed.

[3] = system: greenhouse red spider mite (Tetranychus urticae); experiment: Tetranychus urticae spray test, OP-resistant (TETRUR); type: in vivo; settings: 100 g/ha, spray, after 6 days
Protocol: Tetranychus urticae—Spray Test, OP-Resistant (TETRUR)
(§1) Solvent: 78.0 parts by weight of acetone • • 1.5 parts by weight of dimethylformamide
(§2) Emulsifier: alkylaryl polyglycol ether
(§3) To produce a suitable active compound formulation, 1 part by weight of active compound is dissolved using the specified parts by weight of solvent and made up with water containing an emulsifier concentration of 1000 ppm until the desired concentration is attained. To produce further test concentrations, the preparation is diluted with emulsifier-containing water.
Discs of bean leaves (Phaseolus vulgaris) infested by all stages of the greenhouse red spider mite (Tetranychus urticae) are sprayed with an active compound formulation of the desired concentration.
After 6 days, the efficacy in % is determined 100% means that all the spider mites have been killed; 0% means that none of the spider mites have been killed.
Tetranychus urticae—Spray Test; OP-Resistant (TETRUR)
After the desired period of time, the efficacy in % is determined 100% means that all the spider mites have been killed; 0% means that none of the spider mites have been killed.

[4] = system: adult cat fleas (Ctenocephalides felis); experiment: Ctenocephalides felis oral test (CTECFE); type: in vivo; settings: 100 ppm, oral in cattle blood, after 2 days
Protocol: Ctenocephalides felis-Oral Test ([…]) Solvent: dimethyl sulphoxide To produce a suitable active compound formulation, 10 mg of active compound are mixed with 0.5 ml of dimethyl sulphoxide. Dilution with citrated cattle blood gives the desired concentration. About 20 unfed adult cat fleas (Ctenocephalides felis) are placed into a chamber which is closed at the top and bottom with gauze. A metal cylinder whose bottom end is closed with parafilm is placed onto the chamber. The cylinder contains the blood/active compound preparation, which can be imbibed by the fleas through the parafilm membrane. After 2 days, the kill in % is determined 100% means that all of the fleas have been killed; 0% means that none of the fleas have been killed.

[5] = system: adult houseflies (Musca domestica); experiment: Musca domestica test (MUSCDO); type: in vivo; settings: 100 ppm, after 2 days
Protocol: Musca domestica Test (MUSCDO) Solvent: dimethyl sulphoxide To produce a suitable active compound formulation, 10 mg of active compound are mixed with 0.5 ml of dimethyl sulphoxide, and the concentrate is diluted with water to the desired concentration. Vessels containing a sponge treated with sugar solution and the active compound preparation of the desired concentration are populated with 10 adult houseflies (Musca domestica). After 2 days, the kill in % is determined. 100% means that all of the flies have been killed; 0% means that none of the flies have been killed.

[6] = log P by HPLC (EEC directive 79/831 Annex V.A8); type: physicochemical; settings: HPLC, reversed-phase column (C18), 43° C., acidic range pH 2.7
Protocol: a) The determination of the M^+ by LC-MS in the acidic range is effected at pH 2.7, acetonitrile (contains 0.1% formic acid) and water as eluents; linear gradient from 10% acetonitrile to 95% acetonitrile, instrument: Agilent 1100 LC system, Agilent MSD system, HTS PAL. The log P values reported in the tables and Preparation Examples above were determined in accordance with EEC directive 79/831 Annex V.A8 by HPLC (High Performance Liquid Chromatography) using a reversed-phase column (C18). Temperature 43° C. The calibration is effected with unbranched alkan-2-ones (having 3 to 16 carbon atoms), for which the logP values are known.

[7] = system: larvae of the mustard beetle (Phaedon cochleariae); experiment: Phaedon cochleariae spray test (PHAECO); type: in vivo; settings: after 7 days
Protocol: Phaedon cochleariae—Spray Test (PHAECO)
as §1, §2, §3
After 7 days, the efficacy in % is determined. 100% means that all the beetle larvae have been killed; 0% means that no beetle larvae have been killed.

[8] = system: engorged adult female cattle ticks (Boophilus microplus); experiment: Boophilus microplus injection test (BOOPMI inj); type: in vivo; settings: assessed after 7 days
Protocol: Boophilus microplus Injection Test (BOOPMI inj) Solvent: dimethyl sulphoxide To produce a suitable active compound formulation, 10 mg of active compound are mixed with 0.5 ml of solvent and the concentrate is diluted with solvent to the desired concentration. 1 μl of the active compound solution is injected into the abdomen of 5 engorged adult female cattle ticks (Boophilus microplus). The animals are transferred into dishes and kept in a climate-controlled room. The efficacy is assessed after 7 days by laying of fertile eggs. Eggs which are not visibly fertile are stored in a climate-controlled cabinet until the larvae hatch after about 42 days. An efficacy of 100% means that none of the ticks has laid any fertile eggs; 0% means that all the eggs are fertile.

SMILES	efficacy (kill in %) [1] [%]	efficacy [2] [%]	efficacy [3] [%]	efficacy (kill in %) [4] [%]	efficacy (kill in %) [5] [%]	log P [6]	efficacy ([7]; 100 g/ha) [%]	efficacy (laying of fertile eggs) [8] [%]	% efficacy ([2]; 0.8 g/ha) [%]	% efficacy ([2]; 4 g/ha) [%]	efficacy ([7]; 20 g/ha) [%]
CCn1c(C(=O)NC(c2cc(F)c(Cl)c(Cl)c2)C(F)(F)F)cc2cc(C(=O)NC3(C(N)=S)CC3)c(Cl)cc21 (stereo not shown) [I-09]	100	100	100	100	100	4.02	100	100			
CCn1c(C(=O)NC(c2cc(Cl)c(F)c(Cl)c2)C(F)(F)F)cc2cc(C(=O)NC3(C(N)=S)CC3)c(Cl)cc21 (stereo not shown) [I-02]	100	100	100	100	100	4.04	100	100	100	100	
C#CCn1c(C(=O)NC(c2cc(Cl)c(Cl)c(Cl)c2)C(F)(F)F)cc2cc(C(=O)NC3(C(N)=S)CC3)c(Cl)cc21 (stereo not shown) [I-21]		100	100			4.09	100		100	100	
CCn1c(C(=O)NC(c2cccc(Cl)c2F)C(F)(F)F)cc2cc(C(=O)NC3(C(N)=S)CC3)c(Cl)cc21 (stereo not shown) [I-11]		100	100	100		3.69	100	100			
CCn1c(C(=O)NC(c2ccc(F)c(Br)c2)C(F)(F)F)cc2cc(C(=O)NC3(C(N)=S)CC3)c(Cl)cc21 (stereo not shown) [I-06]		100	100			3.64	100		100	100	
CCn1c(C(=O)NC(c2ccc(Cl)c(Cl)c2)C(F)F)cc2cc(C(=O)NC3(C(N)=S)CC3)c(Cl)cc21 (stereo not shown) [I-25]	100	100	100	100		3.54	100	100			
CCn1c(C(=O)NC(c2cc(F)cc(F)c2)C(F)F)cc2cc(C(=O)NC3(C(N)=S)CC3)c(Cl)cc21 (stereo not shown) [I-23]	90	83	100	100		3.07	100	100			
CCn1c(C(=O)NC(c2cc(Cl)c(F)c(Cl)c2F)C(F)F)cc2cc(C(=O)NC3(C(N)=S)CC3)c(Cl)cc21 (stereo not shown) [I-28]		100	100			3.90	100				
C#CCn1c(C(=O)NC(c2cc(Cl)c(F)c(Cl)c2F)C(F)(F)F)cc2cc(C(=O)NC3(C(N)=S)CC3)c(Cl)cc21 (stereo not shown) [I-12]	100	100		100	100	3.94	100	100	100	100	
Cn1c(C(=O)NC(c2cc(Cl)c(F)c(Cl)c2F)C(F)(F)F)cc2cc(C(=O)NC3(C(N)=S)CC3)c(Cl)cc21 (stereo not shown) [I-08]	100	100	100	100		3.94	100	100	100	100	
Cn1c(C(=O)NC(c2cc(Cl)c(F)c(Cl)c2)C(F)(F)F)cc2cc(C(=O)NC3(C(N)=S)CC3)c(Cl)cc21 (stereo not shown) [I-15]		100	90			3.76			83	100	100
C#CCn1c(C(=O)NC(c2cc(Cl)c(F)c(Cl)c2)C(F)(F)F)cc2cc(C(=O)NC3(C(N)=S)CC3)c(Cl)cc21 (stereo not shown) [I-14]		100	100			3.81	100				
